Values quoted from earlier work as cited in patent US20240093135A1, “BASE ELEMENT OF A MULTI-CHAMBER BIOCHIP, PRODUCTION OF THE MULTI-CHAMBER BIOCHIP, AND USE THEREOF FOR ESTABLISHING ORGAN AND DISEASE MODELS AND SUBSTANCE TESTS” (Dynamic42 GmbH, priority 2022, published 2024).

Details: PDMS chips, after 24 hours

For CCCC1COC(Cn2cncn2)(c2ccc(Cl)cc2Cl)O1 (stereo not shown) [propiconazole], the “detectable share of the starting concentration in the culture medium” value is listed as “less than 30%”.
